Source: patent publication US10774046B2, “Inhibitors for the treatment of cancer and related methods” (UNIVERSITY OF LOUISVILLE RESEARCH FOUNDATION, INC., priority 2017, dated 2020)

Experiments:
[1] = molecular target: human recombinant PFKFB4 (Homo sapiens, UniProt Q16877); experiment: fructose-6-phosphate kinase activity of recombinant PFKFB4 (in vitro kinase assay); assay type: biochemical
Description: The fructose-6-phosphate kinase activity of human recombinant PFKFB4 in the presence of DMSO±indicated 5MPN concentrations was assayed as previously described. The activity of 5MPN against 97 kinases was examined using a commercially available active-site dependent competition binding assay core service (KINOMEscanEDGE) that quantifies the capacity of test agents to compete with an immobilized, active-site directed ligand using a DNA-tagged kinase and immobilized ligand and compound. For example, enzyme inhibition was studied using an ADP-Glo assay. The effect of MPN-2 on the activity of recombinant human PFKFB4 enzyme was examined in an ADP-Glo assay (Promega), which measures ADP formed from a kinase reaction. ADP is converted into ATP, which is converted into light by a luciferase. PFKFB4 protein was exposed to MPN-2 at indicated concentrations in the presence of ATP and fructose-6-phosphate and following manufacturer's instructions, ADP-Glo and kinase detections reagents were added. The data are shown as the decrease in luminescence caused by MPN-2 relative to DMSO.

[2] = system: PFKFB4-/- lung fibroblasts; experiment: cell counts of tamoxifen-inducible PFKFB4-/- fibroblasts; assay type: cell-based, mouse; settings: 4HT-induced deletion, 10 μM 5MPN, 24 hours
Excerpt: H460, H1299, H441, H522 and A549 non-small cell lung cancer (NSCLC), MDA-MB-231 (breast), LNCaP (prostatic) and HCT116 (colon) adenocarcinoma and Lewis lung carcinoma (LLC) cell lines were obtained from ATCC and used within 6 months of acquisition. PFKFB4^−/− ear pinna fibroblasts isolated from TamCre/loxP/PFKFB4^−/− mice were immortalized as described previously (Chesney J et al. Fructose-2,6-bisphosphate synthesis by 6-phosphofructo-2-kinase/fructose-2,6-bisphosphatase 4 (PFKFB4) is required for the glycolytic response to hypoxia and tumor growth. Oncotarget 2014 Aug. 30; 5(16):6670-86). Normal bronchial epithelial cells (NHBE) were obtained from Lonza and NHBE cells expressing telomerase, SV40 large T antigen and activated Ras (hT/LT/Ras) were a gift from Dr. B. J. Rollins, Dana Farber Cancer Institute. All cell lines were tested and found negative for mycoplasma (PCR Mycoplasma Detection Kit, ABM). Cell lines were grown in DMEM (A549, LNCaP, MDA-MB-231, LLC and PFKFB4^−/−), RPMI 1640 (H460, H1299, H441, H522) and McCoy's 5A media (HCT116) (all from Invitrogen) containing 10% fetal calf serum (Hyclone). […]
(§1) Cells were incubated in 20% trypan blue (Sigma) for 5 minutes. Cells excluding trypan blue were counted using a standard hemocytometer (Hausser Scientific) to determine total numbers of viable cells. Data are expressed as mean±SD of three experiments.

[3] = system: H460 cells; experiment: proliferation, viable cell count by trypan blue exclusion; assay type: cell-based, human
Description: as §1
H460 non-small cell lung cancer cells were plated in 24 well plates and exposed to increasing concentrations of the indicated inhibitors of Formula IV (FBR1-02 corresponds to
DMSO was used as vehicle. After 24, 48 and 72 hours of exposure, cells were detached and viable cells were counted by Trypan blue exclusion (representative counts at 48 hours shown).
Method: H460 cells were plated in 24 well plates and exposed to increasing concentrations of FB4-31 to FB4-36 and 5MPN. DMSO was used as a vehicle. After 24, 48 and 72 hours of exposure, cells were detached, and viable cells were counted by Trypan blue exclusion (representative counts at 72 hours shown).

[4] = pharmacokinetic profile after IV and oral administration; assay type: in vivo; settings: C57BL/6 mice
Description: The pharmacokinetic profile was determined in female C57BL/6 mice following IV and oral administration of 5MPN. Using only female mice lowered the animal numbers required for meaningful results without issues of potential gender differences in exposure. Eight time points (n=3/time point) were used to determine PK parameters calculated using WinNonLin v5.0. Plasma samples were extracted using acetonitrile and analyzed by LC/MS-MS using a PhenomexSynergi Polar-RP 4 micron 50×2.0 mm column eluted with a biphasic mobile phase (0.5% formic acid in acetonitrile and water).

[5] = system: cancer cells; experiment: F26BP measurement in cells; assay type: cell-based; settings: increasing concentrations
Description: Method: In order to measure F26BP, cells were exposed to increasing concentrations of Formula (VIII) and were harvested, washed with PBS, lysed in NaOH/Tris acetate by heating at 80° C. and lysates neutralized to pH 7.2. F26BP content was measured using a coupled enzyme reaction following a modified method of Van Schaftingen (VAN SCHAFTINGEN et al, “A kinetic study of pyrophosphate:fructose-6-phosphate phosphotransferase from potato tubers. Application to a microassay of fructose 2,6-bisphosphate” Eur J Biochem. (1982) Vol. 129, No. 1, pp. 191-195), which is herein incorporated by reference in its entirety. The F26BP concentration was normalized to total cellular protein measured by the bicinchoninic acid assay (BCA, Thermo Scientific).

[6] = system: cancer cells; experiment: anchorage independent growth as colonies in soft agar; assay type: cell-based; settings: increasing concentrations
Description: Method: Cancer cells were plated in soft agar and the effects of increasing concentrations of Formula (VIII) on anchorage independent growth was examined. Briefly, a feeder layer of 0.6% agarose (Agar Noble, Becton Dickinson) in RPMI with 10% fetal bovine serum was plated in 6 cm plates containing vehicle (DMSO) or increasing concentrations of Formula (VIII). 1×10^4 cells were re-suspended in 0.3% agarose in RPMI/10% serum containing DMSO or increasing concentrations of Formula (VIII) and plated on top of the feeder layer. Cells were allowed to grow at 37° C. in 5% CO2 and agarose-containing media with DMSO+/−Formula (VIII) was replenished every 5 days until colonies became visible. Colonies were stained with MTT [3-(4,5-dimethylthiazol-2-yl)-2,5-diphenyl tetrazolium bromide] and counted in four random 1 cm^2 areas per plate under 40× magnification and enumerated.

human recombinant PFKFB4, sequence (Q16877 whole entry): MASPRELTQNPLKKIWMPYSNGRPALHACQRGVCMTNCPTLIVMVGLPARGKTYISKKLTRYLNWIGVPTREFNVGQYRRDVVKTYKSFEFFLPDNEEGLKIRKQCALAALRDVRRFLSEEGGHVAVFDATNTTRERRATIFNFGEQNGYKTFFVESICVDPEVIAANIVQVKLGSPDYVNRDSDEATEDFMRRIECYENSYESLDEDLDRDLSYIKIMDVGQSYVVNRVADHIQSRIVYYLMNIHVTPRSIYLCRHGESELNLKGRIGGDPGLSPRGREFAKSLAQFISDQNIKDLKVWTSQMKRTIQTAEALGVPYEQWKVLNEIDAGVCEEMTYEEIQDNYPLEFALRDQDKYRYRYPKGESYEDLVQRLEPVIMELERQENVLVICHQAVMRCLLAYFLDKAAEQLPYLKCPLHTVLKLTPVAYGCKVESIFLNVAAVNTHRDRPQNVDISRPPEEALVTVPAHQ

Row | SMILES | type of inhibition (Lineweaver-Burk analyses) ([1]; as a function of F6P concentration, FIG. 1D) | PFKFB4 activity ([1]; kinase activity of recombinant PFKFB4, FIG. 1C) | effect of genomic deletion of Pfkfb4 on anti-proliferative effect [2] | cell proliferation ([3]; H460, 24-72 hours) | growth ([3]; H460, over 48 hours) | effect of overexpression of PFKFB4 on anti-proliferative effect ([3]; H460 transfected with PFKFB4, 10 μM 5MPN, 24 hours) | oral bioavailability [4] | concentrations reached by intravenous and oral administration ([4]; IV and oral, administered daily) | F26BP (normalized to cellular protein) [5] | anchorage independent growth (soft agar colonies) [6]
1 | COc1cccc2c(NCCCCCO[N+](=O)[O-])ccnc12 [5MPN, 5-[(8-methoxyquinolin-4-yl)amino]pentyl nitrate] | competitive inhibitor of the F6P binding site | inhibited PFKFB4 activity | sensitized | reduction in cell proliferation | dose-dependent reduction in growth | protected | has oral bioavailability | adequate to achieve potentially therapeutic concentrations | – | –
2 | COc1cccc2c(NCCCCCNC(=O)C(F)(F)F)ccnc12 [Formula (VIII), 2,2,2-trifluoro-N-(5-((8-methoxyquinolin-4-yl)amino)pentyl)acetamide] | – | – | – | – | – | – | – | – | dose-dependent decrease | inhibited the growth of cancer cells as soft agar colonies
